Laboratory results from PubChem BioAssay (NCI).
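96-well plates; 48 h exposure; 5 concentrations. Endpoints by linear interpolation between flanking doses. Not reached: highest tested concentration assigned. GI50: concentration for 50% inhibition of growth. The concentration for full growth arrest is given as TGI.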

What was measured:
Assay in all cases: growth of human tumour cells (NCI), 48 h
[1] = system: MDA-MB-468 breast
[2] = system: OVCAR-3 ovarian
[3] = system: EKVX NSCLC
[4] = system: HCC-2998 colon
[5] = system: MALME-3M melanoma
[6] = system: HS 578T breast
[7] = system: U251 CNS
[8] = system: NCI-H522 lung
[9] = system: ACHN renal
[10] = system: KM12 colon
[11] = system: CCRF-CEM leukemia
[12] = system: UO-31 renal
[13] = system: COLO 205 colon
[14] = system: SK-MEL-2 melanoma
[15] = system: SF-268 CNS
[16] = system: SK-MEL-28 melanoma
[17] = system: HOP-62 NSCLC
[18] = system: MCF7 breast
[19] = system: HCT-116 colon
[20] = system: LOX IMVI melanoma
[21] = system: SN12C renal
[22] = system: SF-539 CNS
[23] = system: 786-0 renal
[24] = system: SK-MEL-5 melanoma
[25] = system: UACC-62 melanoma
[26] = system: SNB-19 CNS
[27] = system: NCI-H23 lung
[28] = system: DU-145 prostate
[29] = system: PC-3 prostate
[30] = system: MDA-MB-231 breast
[31] = system: TK-10 renal
[32] = system: IGROV1 ovarian
[33] = system: RPMI-8226 leukemia
[34] = system: HCT-15 colon
[35] = system: UACC-257 melanoma
[36] = system: RXF 393 renal
[37] = system: NCI-H226 lung
[38] = system: HOP-92 NSCLC
[39] = system: OVCAR-8 ovarian
[40] = system: SW-620 colon
[41] = system: CAKI-1 renal
[42] = system: A549 NSCLC
[43] = system: SNB-75 CNS
[44] = system: T-47D breast
[45] = system: A498 renal
[46] = system: BT-549 breast
[47] = system: HL-60(TB) leukemia
[48] = system: K-562 leukemia
[49] = system: SF-295 CNS
[50] = system: MOLT-4 leukemia
[51] = system: SK-OV-3 ovarian
[52] = system: M14 melanoma
[53] = system: NCI/ADR-RES ovarian
[54] = system: SR leukemia
[55] = system: MDA-MB-435

## Cc1noc2c(Cc3ccccc3)nn(CC(=O)N/N=C/c3ccc(Br)cc3)c(=O)c12
[1]
  GI50: 9.61 µM
  TGI: 35.9 µM
[2]
  GI50: 3.36 µM
  TGI: > 100 µM
[3]
  GI50: 31.3 µM
  TGI: > 100 µM
[4]
  GI50: > 100 µM
  TGI: > 100 µM
[5]
  GI50: 14.5 µM
  TGI: 44.3 µM
[6]
  GI50: 3.06 µM
  TGI: 17.7 µM
[7]
  GI50: 3.48 µM
  TGI: 30 µM
[8]
  GI50: 12.9 µM
  TGI: 88.1 µM
[9]
  GI50: 2.71 µM
  TGI: 6.91 µM
[10]
  GI50: > 100 µM
  TGI: > 100 µM
[11]
  GI50: 30.5 µM
  TGI: > 100 µM
[12]
  GI50: 1.91 µM
  TGI: 4.67 µM
[13]
  GI50: 7.46 µM
  TGI: > 100 µM
[14]
  GI50: 17.5 µM
  TGI: 33.7 µM
[15]
  GI50: 22.8 µM
  TGI: > 100 µM
[16]
  GI50: > 100 µM
  TGI: > 100 µM
[17]
  GI50: 3.37 µM
  TGI: 13.1 µM
[18]
  GI50: 77 µM
  TGI: > 100 µM
[19]
  GI50: 3.31 µM
  TGI: 17.7 µM
[20]
  GI50: 8.98 µM
  TGI: > 100 µM
[21]
  GI50: 3.27 µM
  TGI: > 100 µM
[22]
  GI50: 15.8 µM
  TGI: 36.8 µM
[23]
  GI50: 1.89 µM
  TGI: 4.17 µM
[24]
  GI50: 28.4 µM
  TGI: > 100 µM
[25]
  GI50: 13.2 µM
  TGI: 49.6 µM
[26]
  GI50: 13.3 µM
  TGI: 30.2 µM
[27]
  GI50: 9.2 µM
  TGI: 41.3 µM
[28]
  GI50: 76.2 µM
  TGI: > 100 µM
[29]
  GI50: 29.8 µM
  TGI: > 100 µM
[30]
  GI50: 3.34 µM
  TGI: 12.7 µM
[31]
  GI50: 3.01 µM
  TGI: 9.71 µM
[32]
  GI50: 13.5 µM
  TGI: 38.7 µM
[33]
  GI50: 29.1 µM
  TGI: > 100 µM
[34]
  GI50: > 100 µM
  TGI: > 100 µM
[35]
  GI50: > 100 µM
  TGI: > 100 µM
[36]
  GI50: 3.04 µM
  TGI: 12.6 µM
[37]
  GI50: 2.33 µM
  TGI: 6.11 µM
[38]
  GI50: 4.3 µM
  TGI: 21.5 µM
[39]
  GI50: 4.62 µM
  TGI: > 100 µM
[40]
  GI50: > 100 µM
  TGI: > 100 µM
[41]
  GI50: 5.6 µM
  TGI: 25.2 µM
[42]
  GI50: 6.34 µM
  TGI: > 100 µM
[43]
  GI50: 1.74 µM
  TGI: 6.96 µM
[44]
  GI50: 1.96 µM
  TGI: 5.46 µM
[45]
  GI50: 1.73 µM
  TGI: 3.34 µM
[46]
  GI50: 17.7 µM
  TGI: 49.4 µM
[47]
  GI50: > 100 µM
  TGI: > 100 µM
[48]
  GI50: 25.7 µM
  TGI: > 100 µM
[49]
  GI50: 5.79 µM
  TGI: 21.1 µM
[50]
  GI50: 50.6 µM
  TGI: > 100 µM
[51]
  GI50: 3.19 µM
  TGI: 9.49 µM
[52]
  GI50: 29.8 µM
  TGI: > 100 µM
[53]
  GI50: 5.64 µM
  TGI: > 100 µM
[54]
  GI50: 14.7 µM
  TGI: > 100 µM
[55]
  GI50: > 100 µM
  TGI: > 100 µM
